Test results reported in the NIST ThermoML archive (doi:10.1016/j.fluid.2013.09.022).

Test: xn = mol fraction of the nth substance listed
Settings: Gas, isochoric method

F/C=C/C(F)(F)F [trans-1,3,3,3-tetrafluoropropene] + O=C=O
Settings | molar volume [m3/mol]
282.98 K, 1378 kPa, x2 = 0.859 | 0.00149
292.75 K, 1458.4 kPa, x2 = 0.859 | 0.001491
293.11 K, 1207.5 kPa, x2 = 0.733 | 0.001776
293.15 K, 1053.5 kPa, x2 = 0.642 | 0.002057
302.65 K, 741.2 kPa, x2 = 0.254 | 0.002778
302.78 K, 834.7 kPa, x2 = 0.331 | 0.002626
302.95 K, 1530.5 kPa, x2 = 0.859 | 0.001492
303.12 K, 1086.9 kPa, x2 = 0.563 | 0.002066
303.12 K, 1281.1 kPa, x2 = 0.733 | 0.001777
303.15 K, 934.1 kPa, x2 = 0.459 | 0.002372
303.19 K, 1105.4 kPa, x2 = 0.642 | 0.002058
313.09 K, 773.6 kPa, x2 = 0.155 | 0.002926
313.1 K, 879.9 kPa, x2 = 0.331 | 0.002627
313.1 K, 1598.3 kPa, x2 = 0.859 | 0.001492
313.11 K, 824.7 kPa, x2 = 0.254 | 0.00278
313.11 K, 979 kPa, x2 = 0.459 | 0.002373
313.14 K, 1137.1 kPa, x2 = 0.563 | 0.002067
313.15 K, 1337.5 kPa, x2 = 0.733 | 0.001778
313.18 K, 1155.7 kPa, x2 = 0.642 | 0.002059
323.03 K, 1183.9 kPa, x2 = 0.563 | 0.002067
323.04 K, 918.1 kPa, x2 = 0.331 | 0.002628
323.06 K, 861.2 kPa, x2 = 0.254 | 0.002781
323.06 K, 1392.7 kPa, x2 = 0.733 | 0.001778
323.07 K, 808.6 kPa, x2 = 0.155 | 0.002928
323.07 K, 1661.1 kPa, x2 = 0.859 | 0.001493
323.09 K, 1019.8 kPa, x2 = 0.459 | 0.002374
323.12 K, 1201.6 kPa, x2 = 0.642 | 0.00206
332.99 K, 1059.7 kPa, x2 = 0.459 | 0.002375
333.02 K, 897.5 kPa, x2 = 0.254 | 0.002782
333.03 K, 1246.4 kPa, x2 = 0.642 | 0.002061
333.04 K, 1723.3 kPa, x2 = 0.859 | 0.001494
333.05 K, 843.8 kPa, x2 = 0.155 | 0.002929
333.07 K, 955.4 kPa, x2 = 0.331 | 0.002629
333.08 K, 1445.3 kPa, x2 = 0.733 | 0.001779
333.15 K, 1230.3 kPa, x2 = 0.563 | 0.002068
342.9 K, 1274.8 kPa, x2 = 0.563 | 0.002069
342.93 K, 1098.9 kPa, x2 = 0.459 | 0.002376
343.01 K, 1497.2 kPa, x2 = 0.733 | 0.00178
343.02 K, 991.5 kPa, x2 = 0.331 | 0.00263
343.05 K, 877.3 kPa, x2 = 0.155 | 0.00293
343.06 K, 1785.7 kPa, x2 = 0.859 | 0.001494
343.07 K, 1291.7 kPa, x2 = 0.642 | 0.002062
343.2 K, 933 kPa, x2 = 0.254 | 0.002783
352.96 K, 1140 kPa, x2 = 0.459 | 0.002377
353.01 K, 1320.4 kPa, x2 = 0.563 | 0.00207
353.02 K, 910 kPa, x2 = 0.155 | 0.002931
353.03 K, 1336.3 kPa, x2 = 0.642 | 0.002062
353.03 K, 1847.2 kPa, x2 = 0.859 | 0.001495
353.1 K, 1027.7 kPa, x2 = 0.331 | 0.002631
353.12 K, 967.3 kPa, x2 = 0.254 | 0.002784
353.14 K, 1549.7 kPa, x2 = 0.733 | 0.001781
362.89 K, 1178.4 kPa, x2 = 0.459 | 0.002378
362.94 K, 1380.5 kPa, x2 = 0.642 | 0.002063
363.03 K, 1000.8 kPa, x2 = 0.254 | 0.002786
363.05 K, 1365.6 kPa, x2 = 0.563 | 0.002071
363.08 K, 942.8 kPa, x2 = 0.155 | 0.002933
363.08 K, 1908.8 kPa, x2 = 0.859 | 0.001496
363.12 K, 1601.3 kPa, x2 = 0.733 | 0.001781
363.14 K, 1063.4 kPa, x2 = 0.331 | 0.002632
